Target: T1, human plasma protein factor Xa (Homo sapiens, UniProt P00742)
T1 construct: measure proteolytic activity of the enzyme (factor Xa); purchased Haematologic Technologies (Essex Junction, Vt.); host or cells: human plasma
Test: Factor Xa IC50 determination: cleavage of paranitroanilide substrate S-2765 in 96-well plates
Assay type: biochemical
Details: fXa 1 nM, S-2765 100 μM, Tris buffered saline pH 7.4, room temperature
Summary of the method: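 Human plasma factor Xa (1 nM) preincubated 5 min at room temperature with inhibitor (0.01 nM–10 μM final) in Tris-buffered saline pH 7.4 with 5 mM CaCl2, 0.1% BSA, 5% DMSO. S-2765 at 100 μM final; hydrolysis at 405 nm over 2 min. IC50 from 4-parameter fit of initial velocities.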

T1 sequence (P00742 235-488 limits assumed): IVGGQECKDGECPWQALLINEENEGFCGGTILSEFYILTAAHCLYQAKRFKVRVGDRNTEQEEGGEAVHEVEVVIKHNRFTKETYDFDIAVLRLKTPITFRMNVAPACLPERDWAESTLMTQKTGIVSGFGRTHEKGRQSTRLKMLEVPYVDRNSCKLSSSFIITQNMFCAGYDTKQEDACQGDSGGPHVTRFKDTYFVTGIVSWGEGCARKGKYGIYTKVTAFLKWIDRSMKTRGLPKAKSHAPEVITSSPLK
T1 sequence (P00742 41-179 partner limits assumed): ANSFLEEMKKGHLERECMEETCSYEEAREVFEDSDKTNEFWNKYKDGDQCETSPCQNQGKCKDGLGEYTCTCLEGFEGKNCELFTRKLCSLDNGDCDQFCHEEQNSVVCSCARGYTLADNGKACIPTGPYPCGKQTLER

Row | IC50 [nM] | SMILES
1 | ≤ 100 | CN(Cc1ccco1)C(=N)c1ccc(C2=NOC(C)(CNC(=O)c3ccc(Cl)s3)C2)cc1 (stereo not shown) [Example 67, 5-Chloro-thiophene-2-carboxylic acid {3-[4-(N-furan-2-ylmethyl-N-methyl-carbamimidoyl)-phenyl]-5-methyl-4,5-dihydro-isoxazol-5-ylmethyl}-amide]
2 | ≤ 100 | CSc1cc(C(=N)N2CCCC2)ccc1C1=NOC(CNC(=O)c2ccc(Cl)s2)C1 (stereo not shown) [Example 138, 5-Chloro-thiophene-2-carboxylic acid {3-[4-(imino-pyrrolidin-1-yl-methyl)-2-methylsulfanyl-phenyl]-4,5-dihydro-isoxazol-5-ylmethyl}-amide]
3 | 100 to 500 | O=C(NCc1cn(-c2ccc(N3CCCCC3)nc2)nn1)c1ccc(Cl)s1 [Example 392, 5-Chloro-N-((1-(6-(piperidin-1-yl)pyridin-3-yl)-1H-1,2,3-triazol-4-yl)methyl)thiophene-2-carboxamide]
4 | ≤ 100 | O=C(NCC1CC(c2ccc(C(=O)N3CCC3)cc2)=NO1)c1ccc(Cl)s1 (stereo not shown) [Example 163, 5-Chloro-thiophene-2-carboxylic acid {3-[4-(azetidine-1-carbonyl)-phenyl]-4,5-dihydro-isoxazol-5-ylmethyl}-amide]
5 | 100 to 500 | O=C(NCC1CC(c2ccc(-c3cccnc3)cc2)=NO1)c1ccc(Cl)s1 (stereo not shown) [Example 190, 5-Chloro-thiophene-2-carboxylic acid [3-(4-pyridin-3-yl-phenyl)-4,5-dihydro-isoxazol-5-ylmethyl]-amide]
6 | 100 to 500 | CN1CCN=C1c1ccc(-c2cc(CNC(=O)c3ccc(Cl)s3)ccc2F)cc1 [Example 378, 5-Chloro-N-((3-(4-(1-methyl-4,5-dihydro-1H-imidazol-2-yl)phenyl)-4-fluorophenyl)methyl)thiophene-2-carboxamide]
7 | 100 to 500 | COCCN(C)Cc1ccc(Cl)cc1-c1ccc(C2=NOC(CNC(=O)c3ccc(Cl)s3)C2)cc1 (stereo not shown) [Example 206, 5-Chloro-thiophene-2-carboxylic acid [3-(5′-chloro-2′-{[(2-methoxy-ethyl)-methyl-amino]-methyl}-biphenyl-4-yl)-4,5-dihydro-isoxazol-5-ylmethyl]-amide]
8 | ≤ 100 | COc1cc(C(=N)N2CCCC2)ccc1-c1cc(CNC(=O)c2ccc(Cl)s2)on1 [Example 120, 5-Chloro-thiophene-2-carboxylic acid {3-[4-(imino-pyrrolidin-1-yl-methyl)-2-methoxy-phenyl]-isoxazol-5-ylmethyl}-amide]
9 | ≤ 100 | N=C(c1ccc(-n2cnc(CNC(=O)c3ccc(Cl)s3)c2)cc1)N1CCC1 [Example 366, N-((1-(4-(Azetidin-1-yl(imino)methyl)phenyl)-1H-imidazol-4-yl)methyl)-5-chlorothiophene-2-carboxamide]
10 | ≤ 100 | Cc1cnccc1Nc1ccc(C2=NOC(CNC(=O)c3ccc(Cl)s3)C2)cc1 (stereo not shown) [Example 400, 5-Chloro-N-((3-(4-(3-methylpyridin-4-ylamino)phenyl)-4,5-dihydroisoxazol-5-yl)methyl)thiophene-2-carboxamide]
11 | 100 to 500 | COCCN(C)c1cc(C(=N)N2CCCCC2)ccc1C1=NOC(CNC(=O)c2ccc(Cl)s2)C1 (stereo not shown) [Example 89, 5-Chloro-thiophene-2-carboxylic acid (3-{4-(imino-piperidin-1-yl-methyl)-2-[(2-methoxy-ethyl)-methyl-amino]-phenyl}-4,5-dihydro-isoxazol-5-ylmethyl)-amide]
12 | ≥ 500 | COc1ccc(Nc2ccc(-c3cc(CNC(=O)c4ccc(Cl)s4)on3)cc2)cc1 [Example 251, 5-Chloro-thiophene-2-carboxylic acid {3-[4-(4-methoxy-phenylamino)-phenyl]-isoxazol-5-ylmethyl}-amide]
13 | ≤ 100 | N=C(c1ccc(-c2cc(CNC(=O)c3ccc(Cl)s3)on2)c(Oc2ccccc2)c1)N1CCCC1 [Example 132, 5-Chloro-thiophene-2-carboxylic acid {3-[4-(imino-pyrrolidin-1-yl-methyl)-2-phenoxy-phenyl]-isoxazol-5-ylmethyl}-amide]
14 | 100 to 500 | O=C(NCC1CC(c2ccc(Nc3ccncn3)cc2)=NO1)c1ccc(Cl)s1 (stereo not shown) [Example 230, 5-Chloro-thiophene-2-carboxylic acid {3-[4-(pyrimidin-4-ylamino)-phenyl]-4,5-dihydro-isoxazol-5-ylmethyl}-amide]
15 | ≥ 500 | CC(=N)N1CCC(c2cc(CNC(=O)c3ccc(Cl)s3)on2)CC1 [Example 180, 5-Chloro-thiophene-2-carboxylic acid {3-[1-(1-imino-ethyl)-piperidin-4-yl]-isoxazol-5-ylmethyl}-amide]
16 | ≤ 100 | O=C(NCC1CC(c2ccc(Nc3ccncc3)cc2F)=NO1)c1ccc(Cl)s1 (stereo not shown) [Example 247, 5-Chloro-thiophene-2-carboxylic acid {3-[2-fluoro-4-(pyridin-4-ylamino)-phenyl]-4,5-dihydro-isoxazol-5-ylmethyl}-amide]
17 | ≥ 500 | CN(C)Cc1ccc(-c2ccc(-c3cc(CNC(=O)c4ccc(Cl)s4)on3)cc2)cc1 [Example 213, 5-Chloro-thiophene-2-carboxylic acid [3-(4′-dimethylaminomethyl-biphenyl-4-yl)-isoxazol-5-ylmethyl]-amide]
18 | ≤ 100 | CN(C)C(=N)c1ccc(-c2cc(CNC(=O)c3ccc(Cl)s3)on2)c(N2CCOCC2)c1 [Example 98, 5-Chloro-thiophene-2-carboxylic acid {3-[4-(N,N-dimethyl-carbamimidoyl)-2-morpholin-4-yl-phenyl]-isoxazol-5-ylmethyl}-amide]
19 | ≤ 100 | O=C(NCc1cn(-c2ccc(N3CCCNCC3)nc2)nn1)c1ccc(Cl)s1 [Example 384, N-((1-(6-(1,4-Diazepan-1-yl)pyridin-3-yl)-1H-1,2,3-triazol-4-yl)methyl)-5-chlorothiophene-2-carboxamide]
20 | ≥ 500 | O=C(NCC1CC(c2ccc(-c3ccncc3)cc2)=NO1)c1ccc(Cl)s1 (stereo not shown) [Example 191, 5-Chloro-thiophene-2-carboxylic acid [3-(4-pyridin-4-yl-phenyl)-4,5-dihydro-isoxazol-5-ylmethyl]-amide]
21 | ≤ 100 | CCCN(C)C(=N)c1ccc(-n2cc(CNC(=O)c3ccc(Cl)s3)nn2)cc1 [Example 315, N-((1-(4-(N-Methyl-N-propylcarbamimidoyl)phenyl)-1H-1,2,3-triazol-4-yl)methyl)-5-chlorothiophene-2-carboxamide]
22 | ≤ 100 | CNC(=N)c1ccc(C2=NOC(C)(CNC(=O)c3ccc(Cl)s3)C2)cc1 (stereo not shown) [Example 69, 5-Chloro-thiophene-2-carboxylic acid {5-methyl-3-[4-(N-methylcarbamimidoyl)-phenyl]-4,5-dihydro-isoxazol-5-ylmethyl}-amide]
23 | 100 to 500 | CN(C)C(=N)c1ccc(C2=NOC(CNC(=O)c3ccc(Cl)s3)C2)c(N2CCCC2)c1 (stereo not shown) [Example 78, 5-Chloro-thiophene-2-carboxylic acid {3-[4-(N,N-dimethyl-carbamimidoyl)-2-pyrrolidin-1-yl-phenyl]-4,5-dihydro-isoxazol-5-ylmethyl}-amide]
24 | ≥ 500 | O=C(NCc1cc(C2CCNCC2)no1)c1ccc(Cl)s1 [Example 176, 5-Chloro-thiophene-2-carboxylic acid (3-piperidin-4-yl-isoxazol-5-ylmethyl)-amide]
25 | ≤ 100 | N=C(c1ccc(-c2nc(CNC(=O)c3ccc(Cl)s3)co2)cc1)N1CCCCC1 [Example 341, 5-Chloro-N-((2-(4-(imino(piperidin-1-yl)methyl)phenyl)oxazol-4-yl)methyl)thiophene-2-carboxamide]
